Measured values from patent publication US10648917B2, “Luminescent compositions and applications thereof” (THE PENN STATE RESEARCH FOUNDATION, priority 2015, dated 2020).

Assays:
[1] = Photostability under continuous excitation for 3 hours; format: physicochemical; conditions: for photobleaching relative to Fluorescein and Rhodamine B: 3 hours continuous excitation
Experimental: Fluorescence spectra were recorded by a Horiba FluoroMax-4 spectrofluorometer. All samples were measured at a concentration corresponding to an optical density of 0.1 in water and a slit size of 1 nm by 1 nm unless specified. Quantum yields were also determined on same spectrofluorometer by using a Quantum-φ integration sphere at samples' maximum excitation wavelength and at an increment of 0.3 nm. Photostability studies were done by continuously exciting samples at their maximum excitation wavelength and monitoring at the maximum emission wavelength.
Fluorescence spectra were recorded on a Horiba FluoroMax-4 spectrofluorometer (Horiba Scientific, Edison N.J.). All polymer and samples were characterized at a concentration of 2 wt % in 1,4-dioxane and a slit size of 1 nm by 1 nm unless otherwise specified. The fluorescence properties of small molecule dyes were also measure in 2 wt % DI water solutions at same conditions as polymer solutions. BPLPs were also degraded in 1M K2CO3 solution at 37° C. for 24 hours and then neutralized with 1N HCl solution to pH7. The resulting degradation solutions were subject to further PL characterizations. Quantum yields were also determined on the same spectrofluorometer by using a Quantum-φ integration sphere (Horiba Scientific, Edison N.J.) at the same concentration and slit size with the blank solvent as the reference. Photostability of small molecules and polymers were determined by monitoring the emission intensity decay at their max. Excitation and emission wavelengths over 3 hours of continuous lumination in the spectrofluorometer.
Photostability of CFDs was characterized thereafter, since traditional organic dyes suffer from photobleaching. Various CFDs were tested under their maximum excitation and emission wavelengths for 3 hours, and the photoluminescence was normalized to the initial intensity.

[2] = pH dependence of fluorescence / pH sensing; format: physicochemical
Experimental: Absorbance Spectra were recorded on Tecan Infinite M200 Pro UV-vis spectroscopy, and fluorescence spectra were recorded on Horiba FluoroMax-4 fluorospectroscopy at concentrations below 0.1 O.D. unless otherwise indicated. Quantum Yields were measured on the Quantum φ Integrating Sphere accessory to the FluoroMax-4, while lifetime measurements were determined through the Time-Correlation Single Photon Counting (TCSPC) accessory to the FluroMax-4. TCSPC was utilized in conjunction with NanoLED pulsed diode light source with peak excitation wavelength at 352 nm and at 10,000 counts peak preset. Emission was collected at the fluorescence λmax, unless otherwise indicated. For all pH-dependence experiments, sample pH was adjusted with sulfuric acid or sodium hydroxide. For all chloride-dependent quenching experiments, magnesium chloride hexahydrate (Sigma Aldrich) was used.
pH Dependence of CA-Cys Fluorescence. Of all solvent and environmental factors that affect fluorescence, CA-Cys appeared to display the greatest sensitivity to changes in pH. […] From a detailed analysis of FIG. 13, four correlations were observed. Fluorescence properties of CA-Cys were invariable from high basicity to a pH of 4.84, from which the excitation λmax began to red-shift from 350 nm, emission λmax began to red-shift from 418 nm, maximum fluorescence intensity began to decrease, and quantum yield began to decrease. As acidity was increased, all four trends continued until pH 2.44, from which the excitation λmax plateaued at 365 nm, emission plateaued at 445 nm, and fluorescence intensity and quantum yield both experienced a short local plateau. Similarly, Stokes shift increased from 67 nm to 80 nm in high acidity. Lastly, absorbance λmax shifted similarly to that of the maximum excitation, while absorbance intensities remained relatively constant. […] All of these patterns were reminiscent of a pH-dependent equilibrium, thus the predominant mechanism of intensity quenching and bathochromic shifts was hypothesized to be attributed to changes in protolytic equilibria. The noticeably linear quenching of intensities past pH 1.63 is discussed with respect to lifetime analysis herein below.
There is a predictable, linear increase in intensity from pH 3 to 4.5. Furthermore, emission collected at a fixed 445 nm is shown in FIG. 15 to be an isobestic point where intensities are independent of pH (up to pH 1), which should greatly improve the functionality of CA-Cys as a pH sensor. In other words, utilizing 445 nm as a dual-wavelength reference point allows for background subtraction and normalization with respect to absorbance or concentration. […] Furthermore, I418 nm/I445 nm increases linearly in the region of pH 3 to 4.5 for accurate determination of pH within this region, plotted and fitted with an R^2 value of 0.982. To sum up, I418 nm/I445 nm values near 1.6 indicate pH above 4.5, values below 0.7 indicate highly acidic environments below pH 3, while any intermediate I418 nm/I445 nm values can determine the exact pH with good accuracy. It is important to note that CA-Cys fluorescence is in accordance with Kasha's rule, i.e. fluorescence occurs from the lowest excited state, S1→S0, thus the emission λmax is independent of the excitation wavelength, and a fluorescence excitation scan at a fixed emission of 418 nm or 445 nm would provide the maximum fluorescence intensity for that emission wavelength. Also of importance is the reliable range of the isobestic point, which is broken at high acidities (noticeably below pH 1) due to dynamic quenching effects.

SMILES	photobleaching relative to Fluorescein and Rhodamine B [1]	pH of sharp colorimetric transition [2]	photostability ([1]; FIG. 19)	luminescence lost ([1]; after 3 hours continuous excitation)	fluorescence remaining ([1]; after continuous UV excitation for 3 hours) [%]	emission transition (pH) [2]	isobestic absorption point (pH) [2]	I418 nm/I445 nm ratio ([2]; acidic range)	I418 nm/I445 nm ratio ([2]; basic range)	Stokes shift ([2]; before increase (basic)) [nm]	emission λmax plateau ([2]; from pH 2.44) [nm]	excitation λmax plateau ([2]; from pH 2.44) [nm]	quenching of emission intensity at fixed 418 nm ([2]; from pH 4.5-11 to pH 1-3)	emission λmax ([2]; high basicity to pH 4.84) [nm]	excitation λmax ([2]; high basicity to pH 4.84) [nm]	Stokes shift ([2]; in high acidity) [nm]	quenching of overall fluorescence ([2]; upon protonation of first carboxyl group) [fold]
CC(C(=O)O)N1C(=O)C=C(C(=O)O)CC1=O (stereo not drawn) [CA-Ala]	photobleaching on par with Fluorescein but more resistant than Rhodamine B	9.75															
O=C(O)c1cc2n(c(=O)c1)C(C(=O)O)CS2 (stereo not drawn) [CA-Cys]	less stable		strong photostability	less than 3%	95	3.27	3.35	0.7	1.6	67	445	365	roughly 2.25 fold	418	350	80	1.37
